Results from ChEMBL document CHEMBL1144975, “Improving the selectivity of acyclic nucleoside analogues as inhibitors of human mitochondrial thymidine kinase: replacement of a triphenylmethoxy moiety with substituted amines and carboxamides” (Bioorg Med Chem Lett, 2003).

Target: T1, Thymidine kinase, cytosolic (Homo sapiens, UniProt P04183)
T1 sequence (P04183 whole entry): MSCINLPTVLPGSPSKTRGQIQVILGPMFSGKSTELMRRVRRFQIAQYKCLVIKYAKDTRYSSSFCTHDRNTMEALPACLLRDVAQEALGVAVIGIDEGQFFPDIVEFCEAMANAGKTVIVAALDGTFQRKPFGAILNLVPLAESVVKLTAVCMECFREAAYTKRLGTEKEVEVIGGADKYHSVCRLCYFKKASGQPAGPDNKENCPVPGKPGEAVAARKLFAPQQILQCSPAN
Test: Inhibitory concentration on phosphorylation of [methyl-3H]-dTh by human Thymidine Kinase 1

With `Cc1cn(C/C=C\CN(Cc2ccccc2)Cc2ccccc2)c(=O)[nH]c1=O` the IC50 was > 500 µM.
